Experimental data reported in patent US12569499B2, “Intravenous formulations of RK-33” (NATSAR PHARMACEUTICALS, INC., priority 2021, dated 2026).
Converted amounts (≈) assume the structure as drawn.

Tests used:
[1] = Qualitative solubility of RK-33 in various solubilizers; format: physicochemical; conditions: for solubility: thermodynamic from solid
Method: The degree of solubility of RK-33 in various solubilizers were tested. RK-33 was added to the solubilizer and observed for formation of homogenous molecular dispersion and physical appearance.

[2] = Formulation appearance (color, visual precipitation, clarity); format: physicochemical; conditions: with 50% PEG 200 and 4% HPβCD
Method: RK-33 formulations comprising of various combinations of solvents and polymers were prepared and analyzed for color, visual precipitation and clarity.
Formulations comprising of various combinations of solvents and polymers were prepared with an intralipid emulsion used to provide calories to patients who receive an injection into the vein. The prepared formulations were then analyzed for color, visual precipitation and clarity.
Formulations comprising of various combinations of solvents and polymers, including Captisol®, were prepared. The formulations were analyzed for color, visual precipitation and clarity.

tumor cells = conditions: sarcoma, breast, prostate, colorectal, lung, medulloblastoma; cited from earlier work
DDX3 = DDX3 (Homo sapiens, UniProt O00571); conditions: Oncogene 27(28): 3912-3922 (2008); cited from earlier work
Chain of DDX3 (O00571 whole entry): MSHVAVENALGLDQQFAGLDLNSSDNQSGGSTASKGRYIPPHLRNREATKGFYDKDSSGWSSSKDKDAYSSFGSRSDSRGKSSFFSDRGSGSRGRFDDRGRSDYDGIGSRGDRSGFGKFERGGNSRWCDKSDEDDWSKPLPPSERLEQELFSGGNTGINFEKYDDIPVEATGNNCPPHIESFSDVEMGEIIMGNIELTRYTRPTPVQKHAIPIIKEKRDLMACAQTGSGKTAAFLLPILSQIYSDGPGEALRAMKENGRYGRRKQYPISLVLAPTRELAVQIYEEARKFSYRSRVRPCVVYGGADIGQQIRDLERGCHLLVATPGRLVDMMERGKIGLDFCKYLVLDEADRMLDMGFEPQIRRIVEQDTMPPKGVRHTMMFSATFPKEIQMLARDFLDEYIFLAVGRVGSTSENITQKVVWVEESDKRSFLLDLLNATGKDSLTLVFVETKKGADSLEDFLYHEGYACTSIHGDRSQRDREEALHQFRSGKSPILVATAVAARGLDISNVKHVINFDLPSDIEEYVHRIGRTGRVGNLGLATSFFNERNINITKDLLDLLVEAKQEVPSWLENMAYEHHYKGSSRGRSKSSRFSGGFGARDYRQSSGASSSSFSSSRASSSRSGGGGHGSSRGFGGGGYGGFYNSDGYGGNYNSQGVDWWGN

COc1ccc(Cn2c3ncnc4c(ncn4Cc4ccc(OC)cc4)c-3nc2=O)cc1 [RK-33]
solubility ([1]; aqueous buffer, solvent Water (pH 4)): < 1000 µg/mL
solubility ([1]; aqueous buffer, solvent Water (pH 8)): < 1000 µg/mL
solubility ([1]; aqueous buffer, solvent Water (pH 10)): < 1000 µg/mL
solubility ([1]; oil or lipid, solvent Corn oil): < 1000 µg/mL
solubility ([1]; oil or lipid, solvent Gelucire 44/14): < 1000 µg/mL
solubility ([1]; oil or lipid, solvent Labrafil 1944CS): < 1000 µg/mL
solubility ([1]; oil or lipid, solvent Miglyol 810): < 1000 µg/mL
solubility ([1]; oil or lipid, solvent Oleic acid): < 1000 µg/mL
solubility ([1]; oil or lipid, solvent Olive oil): < 1000 µg/mL
solubility ([1]; organic solvent or mixture, solvent Benzyl alcohol): > 250000 µg/mL
solubility ([1]; organic solvent or mixture, solvent DMA): > 100000 µg/mL
solubility ([1]; organic solvent or mixture, solvent DMSO): > 100000 µg/mL
solubility ([1]; organic solvent or mixture, solvent Ethanol): < 1000 µg/mL
solubility ([1]; organic solvent or mixture, solvent Glycerin): < 1000 µg/mL
solubility ([1]; organic solvent or mixture, solvent Glycerol formal): > 75000 µg/mL
solubility ([1]; organic solvent or mixture, solvent NMP): > 100000 µg/mL
solubility ([1]; organic solvent or mixture, solvent PEG 200): ~12000 µg/mL (≈ 28000 µM)
solubility ([1]; organic solvent or mixture, solvent PEG300): ~10000 µg/mL (≈ 23300 µM)
solubility ([1]; organic solvent or mixture, solvent PEG 400): 5000 to 10000 µg/mL (≈ 11700 to 23300 µM)
solubility ([1]; organic solvent or mixture, solvent PG): 1000 to 5000 µg/mL (≈ 2330 to 11700 µM)
solubility ([1]; simulated gastric fluid, solvent Water (pH 1.6)): < 1000 µg/mL
Observation ([1]; solvent Benzyl alcohol): Clear, yellow colored solution
Observation ([1]; solvent Corn oil): Dispersion
Observation ([1]; solvent DMA): Clear, yellow colored solution
Observation ([1]; solvent DMSO): Clear, yellow colored solution
Observation ([1]; solvent Ethanol): Yellow dispersion
Observation ([1]; solvent Gelucire 44/14): Dispersion
Observation ([1]; solvent Glycerin): Dispersion
Observation ([1]; solvent Glycerol formal): Clear, yellow colored solution
Observation ([1]; solvent Labrafil 1944CS): Dispersion
Observation ([1]; solvent Miglyol 810): Dispersion
Observation ([1]; solvent NMP): Clear, yellow colored solution
Observation ([1]; solvent Oleic acid): Dispersion
Observation ([1]; solvent Olive oil): Dispersion
Observation ([1]; solvent PEG 200): Clear, yellow colored solution
Observation ([1]; solvent PEG300): Clear, yellow colored solution
Observation ([1]; solvent PEG 400): Clear, yellow colored solution
Observation ([1]; solvent PG): Clear, yellow colored solution
Observation ([1]; solvent Water): Poor wettability
Observation ([1]; solvent Water (pH 1.6)): Poor wettability
Observation ([1]; solvent Water (pH 4)): Poor wettability
Observation ([1]; solvent Water (pH 8)): Poor wettability
Observation ([1]; solvent Water (pH 10)): Poor wettability
solubility ([1]; solvent Water): < 1000 µg/mL
RK-33 formulation concentration achieved [2]: 2.5 mg/mL
Inhibiting the growth of tumor cells (tumor cells): effective results in inhibiting the growth of tumor cells
Effect of targeting DDX3 on cells (DDX3): promotes cell death
